Data: patent publication US20220146526A1, “METHOD FOR EVALUATING SAMPLE, ANALYSIS METHOD, METHOD FOR DETECTING DEGRADED SAMPLE, MARKER FOR DETECTING DEGRADED BLOOD PLASMA SAMPLE, AND MARKER FOR DETECTING DEGRADED SERUM SAMPLE” (SHIMADZU CORPORATION, priority 2019, published 2022)

Columns and labels:
Format in all cases: physicochemical, human
[1] = GC/MS of serum sample: time from centrifugation to isolation (Table H); parameters: key to Rate of increase or decrease / Rate of increase or decrease (first value, increase): detection intensity relative to 1 at 30 min centrifugation-to-isolation; conditions: for Rate of increase or decrease: detection intensity relative to 1 at 30 minutes; for Increase or decrease: detection intensity
Procedure, shortened: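 Values are GC/MS (EI, MRM) detection intensities of methoxymated/trimethylsilylated serum, normalised to 1 for the 30-min sample. Serum was isolated 30 min, 1 h or 6 h after room-temperature centrifugation (3500 rpm, 5 min) of blood.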

[2] = GC/MS of serum sample: time from blood collection to centrifugation (Table G); conditions: for Rate of increase or decrease: detection intensity relative to 1 at 15 minutes; for Rate of increase or decrease / Increase or decrease: blood collection to centrifugation; for Increase or decrease: detection intensity, after 4 hours vs 15 minutes
Procedure, shortened: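 Values express detection intensity as a ratio to the sample centrifuged 15 minutes after blood collection (taken as 1). Serum was derivatized by methoxymation and trimethylsilylation, then analysed by electron-ionization GC/MS using multiple reaction monitoring on a BPX5 column ramped from 60 to 330° C.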

[3] = LC/MS of serum sample: time from centrifugation to isolation (Table K); parameters: key to Rate of increase or decrease: detection intensity relative to the 30-minute value set as 1; conditions: for Rate of increase or decrease: after 6 hours from centrifugation to isolation, detection intensity relative to 1 at 30 minutes; for Increase or decrease / Time when compound is affected: serum sample, LC/MS; for Increase or decrease: detection intensity vs 30 minutes from centrifugation to isolation; for Time when compound is affected: time from centrifugation to isolation, detection intensity changed by 30% or more vs 30 minutes
Procedure, shortened: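 Serum left at room temperature 30 min, 1 h or 6 h between centrifugation (3500 rpm, 5 min, room temperature) and isolation, then frozen and analysed by LC/MS (Discovery HS F5-3 column, 40° C., 0.1% formic acid water/acetonitrile, electrospray, MRM). Values are detection intensity relative to the 30-min condition set to 1.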

[4] = GC/MS of serum sample: number of times of freezing and thawing (Table I); parameters: key to Rate of increase or decrease / Rate of increase or decrease (first value, increase): detection intensity relative to 2 freeze-thaw cycles = 1
Procedure, shortened: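 Detection intensities are ratios to the value after two freeze–thaw cycles, which is set as 1, compared against 4, 6 and 10 cycles. Analysis used methoxymation and trimethylsilylation derivatization, then GC/MS with EI ionization and multiple reaction monitoring on a BPX5 column. Serum came from blood held at room temperature and spun at 3500 rpm for 5 min.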

[5] = GC/MS of blood plasma sample: number of times of freezing and thawing (Table C); conditions: for Rate of increase or decrease: detection intensity relative to 1 at 2 times; for Increase or decrease: detection intensity
Procedure, shortened: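 Values express detection intensity as a ratio to the 2-cycle freeze-thaw sample (=1), compared with 4, 6 and 10 cycles. Healthy-donor EDTA plasma, cooled at ≤1 min or ≥5 min, spun at 4 °C, 3000 rpm, 15 min. Derivatised by methoxymation/trimethylsilylation; GC-MS/MS in MRM mode with electron ionization.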

**Q.** What does the source list for `O=c1[nH]cnc2nc[nH]c12` [Hypoxanthine]?
**A.** Rate of increase or decrease ([1]; after 1 hour): 1.36; Increase or decrease ([1]; after 1 hour vs 30 minutes): Increase; Rate of increase or decrease ([2]; after 4 hours): 2.11; Increase or decrease [2]: Increase; Rate of increase or decrease [3]: 2.78; Increase or decrease [3]: Increase; Time when compound is affected [3]: After 6 hours; Rate of increase or decrease ([4]; 10 times of freezing and thawing, relative to 1 at 2 times, different from individual to individual, first value (increase)): 1.47; Rate of increase or decrease ([4]; 10 times of freezing and thawing, relative to 1 at 2 times, different from individual to individual, second value (decrease)): 0.66; Number of times when compound is affected ([4]; serum sample, GC/MS, detection intensity changed by 30% or more vs 2 times of freezing and thawing): 10 times; Increase or decrease ([4]; serum sample, GC/MS, detection intensity vs 2 times of freezing and thawing): Different from individual

**Q.** Which “Rate of increase or decrease” value ([1]; after 6 hours) does the source give for `NC(=O)NC1NC(=O)NC1=O` (stereo not shown) [Allantoin] here?
**A.** The value was 3.00.

**Q.** And the Increase or decrease ([1]; after 6 hours vs 30 minutes)?
**A.** Its Increase or decrease is “Increase”.

**Q.** What about the “Rate of increase or decrease” value ([2]; after 4 hours) of the same compound?
**A.** The value was 1.67.

**Q.** What about the Increase or decrease [2] of the same compound?
**A.** Its Increase or decrease is “Increase”.

**Q.** And the “Rate of increase or decrease” value [3]?
**A.** Its value is 10.46.

**Q.** And the Increase or decrease [3]?
**A.** The Increase or decrease was “Increase”.

**Q.** And the “Time when compound is affected” value [3]?
**A.** Its value is “After 6 hours”.

**Q.** And the “Rate of increase or decrease” value ([5]; freezing and thawing 10 times)?
**A.** The value was 1.42.

**Q.** What about the Increase or decrease ([5]; freezing and thawing 10 times vs 2 times) of the same compound?
**A.** Its Increase or decrease is “Increase”.

**Q.** What about the “Rate of increase or decrease” value ([4]; detection intensity relative to 1 at 2 times, serum, GC/MS, freezing and thawing 10 times) of the same compound?
**A.** The value was 2.94.

**Q.** And the Increase or decrease ([4]; detection intensity, serum, GC/MS, freezing and thawing 10 times vs 2 times)?
**A.** Its Increase or decrease is “Increase”.

**Q.** With `CC(C)(CO)[C@@H](O)C(=O)NCCC(=O)O` [Pantothenic acid] as the compound, how does the “Rate of increase or decrease” value ([1]; after 1 hour) read?
**A.** The value was 0.66.

**Q.** What about the Increase or decrease ([1]; after 1 hour vs 30 minutes) of the same compound?
**A.** Its Increase or decrease is “Decrease”.

**Q.** What about the Increase or decrease [2] of the same compound?
**A.** Its Increase or decrease is “Different from individual”.

**Q.** What about the “Rate of increase or decrease (second value, decrease)” value ([2]; different from individual to individual, individuals with decrease, relative to 1 at 15 minutes, collection to centrifugation, after 4 hours) of the same compound?
**A.** Its value is 0.51.

**Q.** And the “Rate of increase or decrease (first value, increase)” value ([2]; different from individual to individual, individuals with increase, relative to 1 at 15 minutes, collection to centrifugation, after 4 hours)?
**A.** The value was 1.78.

**Q.** And the “Rate of increase or decrease” value ([5]; freezing and thawing 4 times)?
**A.** The value was 3.07.

**Q.** What about the Increase or decrease ([5]; freezing and thawing 4 times vs 2 times) of the same compound?
**A.** Its Increase or decrease is “Increase”.

**Q.** And the “Rate of increase or decrease” value ([4]; detection intensity relative to 1 at 2 times, serum, GC/MS, freezing and thawing 4 times)?
**A.** Its value is 1.39.

**Q.** And the Increase or decrease ([4]; detection intensity, serum, GC/MS, freezing and thawing 4 times vs 2 times)?
**A.** The Increase or decrease was “Increase”.

**Q.** Which “Rate of increase or decrease” value [3] does the source give for `O=c1[nH]c(=O)c2[nH]cnc2[nH]1` [Xanthine] here?
**A.** The value was 2.50.

**Q.** And the Increase or decrease [3]?
**A.** Its Increase or decrease is “Increase”.

**Q.** What about the “Time when compound is affected” value [3] of the same compound?
**A.** The value was “After 6 hours”.

**Q.** What about the Increase or decrease ([5]; freezing and thawing 6 times vs 2 times) of the same compound?
**A.** The Increase or decrease was “Different from individual”.

**Q.** What about the “Rate of increase or decrease (second value, decrease)” value ([5]; different from individual to individual, individuals with decrease, relative to 1 at 2 times, freezing and thawing 6 times) of the same compound?
**A.** The value was 0.51.

**Q.** And the “Rate of increase or decrease (first value, increase)” value ([5]; different from individual to individual, individuals with increase, relative to 1 at 2 times, freezing and thawing 6 times)?
**A.** The value was 2.21.
